5 compounds from US12521393B2, “Cytotoxicity targeting chimeras for CCR2-expressing cells” (GLAXOSMITHKLINE INTELLECTUAL PROPERTY DEVELOPMENT LIMITED, priority 2021, dated 2026) can be followed below.

For experiment [1], the system named is endogenous target monocytes in human PBMC. As to the kind of experiment: PBMC ex vivo monocyte depletion flow cytometry assay (Example 200). It counts as cell-based. The following applies: with anti-cotinine antibody (SEQ ID NO: 11/12), 18-24 hours, EC50 in molar, read-out: Ex Vivo Depletion Assay pEC50 (converted). In a few lines: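 Monocyte depletion is reported as pEC50, averaged or given individually across runs, and read by flow cytometry staining CD45, CD14 and CD4 with a viability dye. Compounds, diluted four-fold over 11 points from 1 mM DMSO stocks, were combined with 30 μg/mL Fc-enhanced anti-cotinine antibody and human PBMC, then incubated 18-24 h at 37° C.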
(In general: A flow cytometer gives signals particle by particle.)

Experiment [2] deals with anti-cotinine antibody (SEQ ID NO: 11/12, rabbit variable region with human IgG1 Fc DE mutation). Kind of experiment: SPR binding of anti-cotinine antibody to ARM compounds, Biacore T200, 37° C. (Example 202). As to conditions: SPR Biacore T200, 37° C., pH 7.4, antibody SEQ ID NO: 11/12 captured on protein A; Kd in molar. The method, then:
Anti-cotinine antibodies having a heavy chain sequence of SEQ ID NO: 11 and a light chain sequence of SEQ ID NO: 12 (rabbit variable region with human IgG1 Fc domain containing a DE mutation (S239D/1332E)) were captured on one or more flow cells of a protein A sensor chip (Cytiva) using a Biacore T200 while reserving flow cell 1 as a reference. Following capture, a 3000 second wait step was included to reduce drift during compound analysis. ARM compounds of Formula (I) were then injected at 100 μL/min with 200 and 2000 second association and dissociation times. The entire experiment was run at 37° C. with running buffer containing 10 mM HEPES pH 7.4, 150 mM NaCl, 0.005% P20 and 1% DMSO. ARM compounds of Formula (I) were titrated with a top concentration of 200 nM using a 3-fold 5-point dilution series and a corresponding 5-injection buffer cycle was run for blank subtraction. Data were double referenced by subtracting the response of the reference flow cell from that of the antibody-containing flow cell and subsequently subtracting the referenced blank sensorgrams. Following compound analysis, the surface was regenerated using a 30 second injection of pH 1.5 glycine at a flow rate of 30 μL/min after which antibody was re-captured. The experiment was run using Biacore T200 control software and evaluated using Biacore T200 Evaluation software. Curves were fit with a 1:1 kinetic binding model to obtain kon (1/Ms), koff(1/s), Kd (M) determined as koff/kon, and residence time determined as 1/koff (s).
Anti-cotinine antibody was tested for binding to ARMs compounds of Formula (I) of the invention in the above assay in or more experimental runs and the results are shown in Table 5 below. Affinity is reported as a pKd value. The pKd value is the negative log of the Kd value, wherein the Kd value is the dissociation constant measured in molar (M) as noted above. For compounds tested in more than one experimental run, the pKd value is reported as an average
On the technique in general: Surface plasmon resonance follows binding to a sensor surface in real time, without labels.

On to `CC(C)N(C)[C@@H]1CC[C@H](N2CC[C@H](Nc3ncnc4ccc(C(F)(F)F)cc34)C2=O)[C@H](NC(=O)CCOCCOCCNC(=O)COCCNC(=O)CCNC(=O)[C@H]2CC(=O)N(C)[C@@H]2c2cccnc2)C1` [Example 75, (2S,3S)-N-(19-(((1R,2S,5R)-5-(Isopropyl(methyl)amino)-2-((S)-2-oxo-3-((6-(trifluoromethyl)quinazolin-4-yl)amino)pyrrolidin-1-yl)cyclohexyl)amino)-3,9,19-trioxo-7,13, 16-trioxa-4, 10-diazanonadecyl)-1-methyl-5-oxo-2-(pyridin-3-yl)pyrrolidine-3-carboxamide], for which the EC50 in experiment [1] is 1 nM. The “pKd of Antibody for ARM Compound of Formula (I)” value (from here on “pKd of Antibody”) in experiment [2] came to 9.103.

Consider `CC(C)N(C)[C@@H]1CC[C@H](N2CC[C@H](Nc3ncnc4ccc(C(F)(F)F)cc34)C2=O)[C@H](NC(=O)COCCNC(=O)CCNC(=O)COCCOCCNC(=O)[C@H]2CC(=O)N(C)[C@@H]2c2cccnc2)C1` [Example 79, (2S,3S)-N-(18-(((1R,2S,5R)-5-(Isopropyl(methyl)amino)-2-((S)-2-oxo-3-((6-(trifluoromethyl)quinazolin-4-yl)amino)pyrrolidin-1-yl)cyclohexyl)amino)-8,12,18-trioxo-3,6,16-trioxa-9,13-diazaoctadecyl)-1-methyl-5-oxo-2-(pyridin-3-yl)pyrrolidine-3-carboxamide], for which the EC50 in experiment [1] is 3.16 nM. Moreover, the “pKd of Antibody” value in experiment [2] was 9.126.

`CN1C(=O)C[C@H](C(=O)NCCOCC(=O)NCCOCC(=O)NCCOCCC(=O)N[C@@H]2C[C@H](NC(C)(C)C)CC[C@@H]2N2CC[C@H](Nc3ncnc4ccc(C(F)(F)F)cc34)C2=O)[C@H]1c1cccnc1` [Example 103, (2S,3S)-N-(18-(((1R,2S,5R)-5-(tert-Butylamino)-2-((S)-2-oxo-3-((6-(trifluoromethyl)quinazolin-4-yl)amino)pyrrolidin-1-yl)cyclohexyl)amino)-5,11,18-trioxo-3,9,15-trioxa-6, 12-diazaoctadecyl)-1-methyl-5-oxo-2-(pyridin-3-yl)pyrrolidine-3-carboxamide]: the EC50 in experiment [1] is 100000 nM. Moreover, the “pKd of Antibody” value in experiment [2] was found to be 9.0985.

Consider `CC(C)N(C)[C@@H]1CC[C@H](N2CC[C@H](Nc3ncnc4ccc(C(F)(F)F)cc34)C2=O)[C@H](NC(=O)COCCNC(=O)CCOCCNC(=O)COCCNC(=O)[C@H]2CC(=O)N(C)[C@@H]2c2cccnc2)C1` [Example 104, (2S,3S)-N-(18-(((1R,2S,5R)-5-(Isopropyl(methyl)amino)-2-((S)-2-oxo-3-((6-(trifluoromethyl)quinazolin-4-yl)amino)pyrrolidin-1-yl)cyclohexyl)amino)-5,12,18-trioxo-3,9,16-trioxa-6,13-diazaoctadecyl)-1-methyl-5-oxo-2-(pyridin-3-yl)pyrrolidine-3-carboxamide], for which the EC50 in experiment [1] is 0.631 nM. In addition, the “pKd of Antibody” value in experiment [2] is recorded as 9.051.

`CC(C)N(C)[C@@H]1CC[C@H](N2CC[C@H](Nc3ncnc4ccc(C(F)(F)F)cc34)C2=O)[C@H](NC(=O)COCCNC(=O)[C@H]2CC[C@@H](NC(=O)CCOCCNC(=O)[C@H]3CC(=O)N(C)[C@@H]3c3cccnc3)CC2)C1` [Example 109, (2S,3S)-N-(2-(3-(((1S,4R)-4-((2-(2-(((1R,2S,5R)-5-(Isopropyl(methyl)amino)-2-((S)-2-oxo-3-((6-(trifluoromethyl)quinazolin-4-yl)amino)pyrrolidin-1-yl)cyclohexyl)amino)-2-oxoethoxy)ethyl)carbamoyl)cyclohexyl)amino)-3-oxopropoxy)ethyl)-1-methyl-5-oxo-2-(pyridin-3-yl)pyrrolidine-3-carboxamide]: in experiment [1], the EC50 is 0.631 nM. For the same compound, the “pKd of Antibody” value in experiment [2] came out at 8.951.
